This note sets out measurements from patent publication US12624050B2, “Three fused ring derivative-containing salt or crystal form and pharmaceutical composition thereof” (Shanghai Hansoh Biomedical Co., Ltd., priority 2019, dated 2026).

Broadly, the IC50 is the point on the concentration scale where inhibition reaches its midpoint.

Each structure is given as a SMILES string. A value given as a limit tells only on which side of the number the result lay.

The target in test [1] is T1, PI3Kβ (Homo sapiens, UniProt P42338).
T1 construct: purchased Carna #11-102
Briefly: ADP-Glo Lipid Kinase Assay, PI3Kβ kinase activity. It counts as biochemical. The following applies: ratio of IC50 values. The method, then: (§1) In this experiment, ADP-Glo Lipid Kinase Assay (Promega #V9102) from Promega was used. The lipid kinases PI3Kα/β/γ/δ catalyzed the ATP-to-ADP reaction in the presence of the substrate PIP2:3PS and ATP. The lipid kinase activity was characterized by measuring the ADP content in the reaction, and the half inhibition concentrations IC50 of the compounds on PI3Kα/β/γ/δ kinase activity were obtained.
(§2) Kinase reactions were carried out in white 384-well plates (Perkin Elmer #6007299). 2 μL of the compound of various concentrations diluted with ddH2O containing 1% DMSO was added to each well, and 2 μL of ddH2O containing 1% DMSO was added to positive control wells. Then 2 μL of 0.1 to 2 nM PI3K kinase solution diluted with 5× kinase buffer (HEPES 250 mM, MgCl2 15 mM, NaCl 250 mM, BSA 0.05%) was added to each well, and 2 μL of 5× kinase buffer was added to the negative control wells. 4 μL of 50 μM substrate PIP2:3PS (Promega #V1701) prepared with 10× Dilution buffer and ddH2O was added to all wells. Finally, 2 μL of 50 to 100 μM ATP solution diluted with water was added to start the reaction. After the reaction was carried out at room temperature for 90 to 120 minutes, 10 µL of ADP-Glo Reagent (containing 10 mM MgCl2) was added to each well, and the reaction was carried out at room temperature for 60 minutes to eliminate excess adenosine triphosphate (ATP) in the reaction. Then 20 μL of Kinase Detection Reagent was added to each well. After the reaction was carried out for 20 minutes at room temperature in the dark, the chemiluminescence was measured by BioTek Synergy H1 microplate reader.
(§3) The percentage inhibition data of the compound-treated well was calculated from positive control wells (DMSO control wells) and negative control wells (no kinase added) on the plate {% inhibition=100−[(test compound value−negative control value)]/(positive control value-negative control value)×100}. IC50 values were calculated using GraphPad prism and using a four-parameter nonlinear logistic formula to fit the data of different concentrations and corresponding percent inhibition.
A general note: ADP-Glo turns the ADP formed in a reaction into a luminescent signal.

In test [2] the target is T2, PI3Kγ (Homo sapiens, UniProt P48736).
T2 construct: purchased Thermofisher #PV4786
Briefly: ADP-Glo Lipid Kinase Assay, PI3Kγ kinase activity. It is filed as biochemical. The following applies: ratio of IC50 values. The method, then: as §1, §2, §3

Test [3] concerns the target T3, PI3Kδ (Homo sapiens, UniProt O00329).
T3 construct: purchased Carna #11-103
Description: ADP-Glo Lipid Kinase Assay, PI3Kδ kinase activity. Particulars: ratio of IC50 values. It is filed as biochemical. The method, then: as §1, §2, §3

Test [4] has as its system HCC1954 (H1047R). Description: Proliferation inhibition of PI3Kα mutant cancer cells, Cell Titer-Glo, HCC1954. It counts as cell-based. The following applies: Homo sapiens. The method, then: (§4) The proliferation inhibitory effect of the compounds of the examples on the PI3Kα mutant cancer cell lines (HCC1954, HGC-27 and MKN1) was detected by Cell Titer-Glo method. Cell lines were cultured in RPMI 1640 medium (Gibco #22400089) containing 10% FBS (Gibco #10091148) and 1% P/S (Hyclone #SV30010) under the condition of 37° C. and 5% CO2. The cells were collected before the experiment, and the cell density was adjusted after cell counting. The cells were seeded in a white 96-well plate (Corning #3610) at a density of 1000 to 10000 cells/well, and incubated in an incubator at 37° C. and 5% CO2 overnight. The prepared compound solutions of different concentrations and the corresponding solvent controls were added to the plate. The plate was again incubated in an incubator at 37° C. and 5% CO2 for 48 to 96 hours. Then the cell plate and its contents were equilibrated to room temperature. 20 to 100 μL of Cell Titer-Glo solution (Promega #G7573) was added to each well, and the plate was shaken and mixed well, then incubated at room temperature for 5 to 30 minutes in the dark. The chemiluminescence was measured by a SynergyH1 microplate reader from BioTek.
(§5) The percentage inhibition data of the compound-treated well was calculated from solvent control wells on the plate {% inhibition=100−([…])×100}. IC50 values were calculated using GraphPad prism and using a four-parameter nonlinear logistic formula to fit the data of different concentrations and corresponding percent inhibition.

Test [5] concerns MKN1 (E545K). Briefly: Proliferation inhibition of PI3Kα mutant cancer cells, Cell Titer-Glo, MKN1. It counts as cell-based. The following applies: Homo sapiens, MKN-1. The method, then:
as §4, §5

Test [6] relates to HGC-27 (E542K). Description: Proliferation inhibition of PI3Kα mutant cancer cells, Cell Titer-Glo, HGC-27. Particulars: Homo sapiens. It is filed as cell-based. The method, then: as §4, §5

T2 sequence (P48736 whole entry): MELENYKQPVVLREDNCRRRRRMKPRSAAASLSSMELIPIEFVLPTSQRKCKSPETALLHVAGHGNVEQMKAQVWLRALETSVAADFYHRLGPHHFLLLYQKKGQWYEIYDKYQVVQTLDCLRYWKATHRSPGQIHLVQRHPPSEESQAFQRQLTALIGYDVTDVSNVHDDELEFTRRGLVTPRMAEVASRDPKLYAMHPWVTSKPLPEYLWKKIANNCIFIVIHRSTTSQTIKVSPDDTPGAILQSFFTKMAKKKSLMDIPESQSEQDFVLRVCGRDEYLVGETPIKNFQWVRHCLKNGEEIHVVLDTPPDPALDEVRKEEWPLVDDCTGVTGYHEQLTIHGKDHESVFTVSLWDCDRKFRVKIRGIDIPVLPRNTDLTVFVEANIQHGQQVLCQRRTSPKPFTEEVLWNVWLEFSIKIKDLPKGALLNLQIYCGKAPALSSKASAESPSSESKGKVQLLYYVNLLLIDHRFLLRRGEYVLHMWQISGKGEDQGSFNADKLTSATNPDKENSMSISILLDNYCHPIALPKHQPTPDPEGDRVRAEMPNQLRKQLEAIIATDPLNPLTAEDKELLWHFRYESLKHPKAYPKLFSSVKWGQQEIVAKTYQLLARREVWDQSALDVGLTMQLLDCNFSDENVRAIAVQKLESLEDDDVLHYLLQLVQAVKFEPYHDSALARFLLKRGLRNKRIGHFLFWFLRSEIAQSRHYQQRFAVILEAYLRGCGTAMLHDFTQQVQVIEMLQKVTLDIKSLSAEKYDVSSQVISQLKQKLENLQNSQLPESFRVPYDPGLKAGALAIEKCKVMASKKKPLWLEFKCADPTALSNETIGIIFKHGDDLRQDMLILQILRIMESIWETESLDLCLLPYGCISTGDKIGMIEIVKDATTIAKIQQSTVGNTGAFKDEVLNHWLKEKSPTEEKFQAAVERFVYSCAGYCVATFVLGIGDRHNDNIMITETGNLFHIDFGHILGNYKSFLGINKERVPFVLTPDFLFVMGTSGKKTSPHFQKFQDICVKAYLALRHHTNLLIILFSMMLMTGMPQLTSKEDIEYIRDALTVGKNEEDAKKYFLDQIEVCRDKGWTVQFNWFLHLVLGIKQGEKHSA
T3 sequence (O00329 whole entry): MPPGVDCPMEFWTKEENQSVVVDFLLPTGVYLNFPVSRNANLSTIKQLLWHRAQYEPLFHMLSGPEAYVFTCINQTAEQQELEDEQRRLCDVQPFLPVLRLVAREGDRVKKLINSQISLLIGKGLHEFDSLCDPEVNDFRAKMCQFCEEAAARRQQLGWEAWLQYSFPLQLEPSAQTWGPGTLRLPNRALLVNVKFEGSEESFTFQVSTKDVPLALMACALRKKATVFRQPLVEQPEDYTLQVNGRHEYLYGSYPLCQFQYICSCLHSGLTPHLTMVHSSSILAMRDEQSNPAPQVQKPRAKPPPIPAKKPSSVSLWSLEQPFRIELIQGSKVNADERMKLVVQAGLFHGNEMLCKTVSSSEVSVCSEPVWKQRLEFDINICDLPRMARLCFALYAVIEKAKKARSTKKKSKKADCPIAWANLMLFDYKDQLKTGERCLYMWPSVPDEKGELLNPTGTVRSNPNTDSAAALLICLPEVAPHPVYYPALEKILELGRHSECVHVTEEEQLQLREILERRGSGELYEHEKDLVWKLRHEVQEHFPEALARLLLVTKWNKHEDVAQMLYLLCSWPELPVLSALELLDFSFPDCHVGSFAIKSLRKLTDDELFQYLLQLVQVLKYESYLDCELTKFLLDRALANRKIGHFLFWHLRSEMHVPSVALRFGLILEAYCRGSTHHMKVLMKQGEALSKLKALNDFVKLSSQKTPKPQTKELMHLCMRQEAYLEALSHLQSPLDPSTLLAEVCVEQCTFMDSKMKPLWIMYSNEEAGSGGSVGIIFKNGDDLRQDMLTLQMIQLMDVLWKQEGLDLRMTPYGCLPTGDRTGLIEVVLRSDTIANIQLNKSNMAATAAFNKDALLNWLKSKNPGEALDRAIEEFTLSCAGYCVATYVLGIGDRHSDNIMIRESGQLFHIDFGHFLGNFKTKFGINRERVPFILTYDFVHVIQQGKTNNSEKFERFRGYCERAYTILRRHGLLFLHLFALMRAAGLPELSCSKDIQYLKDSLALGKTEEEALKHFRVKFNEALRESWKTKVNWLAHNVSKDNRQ
T3 sequence (P27986 whole entry partner): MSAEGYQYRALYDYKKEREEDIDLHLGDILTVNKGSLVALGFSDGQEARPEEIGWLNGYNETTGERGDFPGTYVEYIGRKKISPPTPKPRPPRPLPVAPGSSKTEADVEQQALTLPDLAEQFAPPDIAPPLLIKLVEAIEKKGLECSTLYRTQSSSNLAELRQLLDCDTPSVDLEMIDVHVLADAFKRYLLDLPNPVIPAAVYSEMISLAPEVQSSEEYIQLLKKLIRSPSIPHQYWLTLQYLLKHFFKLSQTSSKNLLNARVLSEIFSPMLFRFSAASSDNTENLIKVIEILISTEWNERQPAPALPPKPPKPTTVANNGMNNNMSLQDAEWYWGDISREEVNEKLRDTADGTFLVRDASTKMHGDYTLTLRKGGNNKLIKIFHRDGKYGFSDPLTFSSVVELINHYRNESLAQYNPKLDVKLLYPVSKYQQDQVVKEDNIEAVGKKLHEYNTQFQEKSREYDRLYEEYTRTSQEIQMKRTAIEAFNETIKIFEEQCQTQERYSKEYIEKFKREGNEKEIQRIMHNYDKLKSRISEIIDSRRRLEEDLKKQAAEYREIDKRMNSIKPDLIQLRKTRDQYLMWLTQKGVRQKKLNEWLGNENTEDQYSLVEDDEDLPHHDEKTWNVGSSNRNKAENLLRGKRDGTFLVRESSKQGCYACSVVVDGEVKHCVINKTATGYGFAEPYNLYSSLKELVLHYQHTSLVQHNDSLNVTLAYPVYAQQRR
T1 sequence (P42338 whole entry): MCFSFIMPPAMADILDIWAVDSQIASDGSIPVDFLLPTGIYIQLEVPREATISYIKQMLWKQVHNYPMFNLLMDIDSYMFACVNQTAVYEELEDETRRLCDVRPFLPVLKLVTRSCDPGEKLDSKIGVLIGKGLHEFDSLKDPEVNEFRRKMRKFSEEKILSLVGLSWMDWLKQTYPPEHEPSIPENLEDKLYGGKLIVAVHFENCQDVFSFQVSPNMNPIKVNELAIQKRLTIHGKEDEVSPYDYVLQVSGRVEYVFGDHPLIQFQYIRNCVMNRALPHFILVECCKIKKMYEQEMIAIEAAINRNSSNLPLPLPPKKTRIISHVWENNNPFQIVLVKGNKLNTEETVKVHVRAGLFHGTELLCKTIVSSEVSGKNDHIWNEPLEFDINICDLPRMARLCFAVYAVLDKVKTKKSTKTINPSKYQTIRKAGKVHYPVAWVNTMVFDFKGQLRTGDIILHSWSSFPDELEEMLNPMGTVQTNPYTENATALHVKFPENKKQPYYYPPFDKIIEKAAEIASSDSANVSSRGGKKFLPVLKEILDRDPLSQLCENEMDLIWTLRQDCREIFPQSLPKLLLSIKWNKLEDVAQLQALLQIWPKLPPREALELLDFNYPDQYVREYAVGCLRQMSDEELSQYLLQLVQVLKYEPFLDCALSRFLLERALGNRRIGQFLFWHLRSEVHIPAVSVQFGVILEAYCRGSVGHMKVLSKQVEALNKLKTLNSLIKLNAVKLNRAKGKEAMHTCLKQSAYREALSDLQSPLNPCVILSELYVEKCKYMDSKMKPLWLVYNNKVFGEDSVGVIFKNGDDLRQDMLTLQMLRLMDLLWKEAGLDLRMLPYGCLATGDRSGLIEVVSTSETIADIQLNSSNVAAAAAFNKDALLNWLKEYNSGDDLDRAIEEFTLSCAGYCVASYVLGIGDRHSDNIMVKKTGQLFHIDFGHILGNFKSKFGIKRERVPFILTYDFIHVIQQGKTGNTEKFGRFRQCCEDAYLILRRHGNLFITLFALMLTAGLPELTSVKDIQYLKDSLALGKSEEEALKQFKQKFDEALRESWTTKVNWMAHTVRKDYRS
T1 sequence (P27986 whole entry partner): as the sequence (P27986 whole entry partner) above

Turning to `C[C@H](Nc1cc(F)c2c(c1)OCCn1cc(N3C(=O)OC[C@H]3C(F)F)nc1-2)C(N)=O` [Example 32, (S)-2-((2-((S)-4-(difluoromethyl)-2-oxooxazolidin-3-yl)-11-fluoro-5,6-dihydrobenzo[f]imidazo[1,2-d][1,4]oxazepin-9-yl)amino)propionamide], the “Selectivity of PI3Kα vs PI3Kβ” value in test [1] came out at 536. Moreover, the “Selectivity of PI3Kα vs PI3Kγ” value in test [2] is reported as 98. Moreover, the “Selectivity of PI3Kα vs PI3Kδ” value in test [3] is 88.
In the case of `C[C@H](Nc1ccc2c(c1)OCCn1cc(N3C(=O)N(C)C[C@H]3C(F)F)nc1-2)C(N)=O` [Example 24, (S)-2-((2-((S)-5-(difluoromethyl)-3-methyl-2-oxoimidazolidin-1-yl)-5,6-dihydrobenzo[f]imidazo[1,2-d][1,4]oxazepin-9-yl)amino)propionamide], in test [1], the “Selectivity of PI3Kα vs PI3Kβ” value came to 1238. For the same compound, the “Selectivity of PI3Kα vs PI3Kγ” value in test [2] is listed as 80. Further, the “Selectivity of PI3Kα vs PI3Kδ” value in test [3] amounted to 75.
For the compound `C[C@@H](C(N)=O)N(C)c1ccc2c(c1)OCCn1cc(N3C(=O)SC[C@H]3C(F)F)nc1-2` [Example 54, (S)-2-((2-((R)-4-(difluoromethyl)-2-oxothiazolidin-3-yl)-5,6-dihydrobenzo[f]imidazo[1,2-d][1,4]oxazepin-9-yl)(methyl)amino)propionamide], the “Selectivity of PI3Kα vs PI3Kβ” value in test [1] was 238. Besides, in test [2], the “Selectivity of PI3Kα vs PI3Kγ” value was determined as 217. Besides, the “Selectivity of PI3Kα vs PI3Kδ” value in test [3] is 31. The half-maximal inhibitory concentration (IC50) in test [4] came out at 29 nM; in test [5], 42 nM; in test [6], 32 nM.
In the case of `CC(Nc1ccc2c(c1)OCCn1cc(N3C(=O)OC(C)[C@H]3C(F)F)nc1-2)C(N)=O` (stereo in doubt) [Example 26, (R)-2-((2-((4S,5R)-4-(difluoromethyl)-5-methyl-2-oxooxazolidin-3-yl)-5,6-dihydrobenzo[f]imidazo[1,2-d][1,4]oxazepin-9-yl)amino)propionamide], the “Selectivity of PI3Kα vs PI3Kβ” value in test [1] worked out at 1101. Further, the “Selectivity of PI3Kα vs PI3Kγ” value in test [2] turned out to be 214. In test [3], the “Selectivity of PI3Kα vs PI3Kδ” value was found to be 125. Also, the results for the concentration for half-maximal inhibition (IC50) in test [4], in test [5] and in test [6] were 160 nM, 508 nM and 325 nM, respectively.
Take `COC[C@H](Nc1ccc2c(c1F)OCCn1cc(N3C(=O)SC[C@H]3C(F)F)nc1-2)C(N)=O` [Example 51, (S)-2-((2-((R)-4(difluoromethyl)-2-oxothiazolidin-3-yl)-8-fluoro-5,6-dihydrobenzo[f]imidazo[1,2-d][1,4]oxazepin-9-yl)amino)-3-methoxypropionamide]: the “Selectivity of PI3Kα vs PI3Kβ” value in test [1] is 157. In test [2], the “Selectivity of PI3Kα vs PI3Kγ” value is on record as 170. Also, in test [3], the “Selectivity of PI3Kα vs PI3Kδ” value is listed as 51. The IC50 in test [4] came to 243 nM; in test [5], 426 nM; in test [6], 455 nM.
For the compound `C[C@H](Nc1ccc2c(c1F)OCCn1cc(N3C(=O)OC[C@H]3C(F)F)nc1-2)C(N)=O` [Example 31, (S)-2-((2-((S)-4-(difluoromethyl)-2-oxooxazolidin-3-yl)-8-fluoro-5,6-dihydrobenzo[f]imidazo[1,2-d][1,4]oxazepin-9-yl)amino)propionamide], the “Selectivity of PI3Kα vs PI3Kβ” value in test [1] is listed as 178. Also, in test [2], the “Selectivity of PI3Kα vs PI3Kγ” value came out at 87. For the same compound, the “Selectivity of PI3Kα vs PI3Kδ” value in test [3] is reported as 59. For the same compound, the IC50 in test [4] came out at 226 nM; in test [5], 653 nM; in test [6], 499 nM.
On to `CC(C)[C@H](Nc1ccc2c(c1)OCCn1cc(N3C(=O)OC[C@H]3C(F)F)nc1-2)C(N)=O` [Example 14, (S)-2-((2-((S)-4-(difluoromethyl)-2-oxooxazolidin-3-yl)-5,6-dihydrobenzo[f]imidazo[1,2-d][1,4]oxazepin-9-yl)amino)-3-methylbutanamide], for which, in test [1], the “Selectivity of PI3Kα vs PI3Kβ” value is reported as 358. The “Selectivity of PI3Kα vs PI3Kγ” value in test [2] stood at 112. Moreover, in test [3], the “Selectivity of PI3Kα vs PI3Kδ” value is 103. Also, the results for the IC50 in test [4], in test [5] and in test [6] were 204 nM, 615 nM and 417 nM, respectively.
As to `C[C@@H](C(N)=O)N(C)c1ccc2c(c1)OCCn1cc(N3C(=O)OC[C@H]3C(F)F)nc1-2` [Example 19, (S)-2-((2-((S)-4-(difluoromethyl)-2-oxooxazolidin-3-yl)-5,6-dihydrobenzo[f]imidazo[1,2-d][1,4]oxazepin-9-yl)(methyl)amino)propionamide], the “Selectivity of PI3Kα vs PI3Kβ” value in test [1] was determined as 329. Further, the “Selectivity of PI3Kα vs PI3Kγ” value in test [2] was found to be 648. Besides, the “Selectivity of PI3Kα vs PI3Kδ” value in test [3] was 29. In addition, the IC50 in test [4] came out at 112 nM; in test [5] it was 214 nM; in test [6] it was 169 nM.
In the case of `C[C@H](Nc1ccc2c(c1)OCCn1cc(N3C(=O)CC[C@H]3C(F)F)nc1-2)C(N)=O` [Example 46, (S)-2-((2-((S)-2-(difluoromethyl)-5-oxopyrrolidin-1-yl)-5,6-dihydrobenzo[f]imidazo[1,2-d][1,4]oxazepin-9-yl)amino)propionamide], in test [1], the “Selectivity of PI3Kα vs PI3Kβ” value stood at 785. In test [2], the “Selectivity of PI3Kα vs PI3Kγ” value is 243. In test [3], the “Selectivity of PI3Kα vs PI3Kδ” value came to 90. Further, the IC50 is 184 nM in test [4], 268 nM in test [5] and 186 nM in test [6].
For `NC(=O)[C@@H]1CCCN1c1ccc2c(c1)OCCn1cc(N3C(=O)SC[C@H]3C(F)F)nc1-2` [Example 53, (S)-1-(2-((R)-4-(difluoromethyl)-2-oxothiazolidin-3-yl)-5,6-dihydrobenzo[f]imidazo[1,2-d][1,4]oxazepin-9-yl)pyrrolidine-2-carboxamide], the “Selectivity of PI3Kα vs PI3Kβ” value in test [1] is on record as 423. Also, the “Selectivity of PI3Kα vs PI3Kγ” value in test [2] is reported as 254. Further, the “Selectivity of PI3Kα vs PI3Kδ” value in test [3] is reported as 43. The IC50 in test [4] came out at 40 nM; in test [5], 66 nM; in test [6], 77 nM.
As for `COC[C@H](Nc1ccc2c(c1)OCCn1cc(N3C(=O)OC[C@H]3C(F)F)nc1-2)C(N)=O` [Example 43, (S)-2-((2-((S)-4-(difluoromethyl)-2-oxooxazolidin-3-yl)-5,6-dihydrobenzo[f]imidazo[1,2-d][1,4]oxazepin-9-yl)amino)-3-methoxypropionamide], the IC50 is 222 nM in test [4], 368 nM in test [5] and 531 nM in test [6].
The corresponding values for `NC(=O)[C@@H]1CCN1c1ccc2c(c1)OCCn1cc(N3C(=O)OC[C@H]3C(F)F)nc1-2` [Example 21, (S)-1-(2-((S)-4-(difluoromethyl)-2-oxooxazolidin-3-yl)-5,6-dihydrobenzo[f]imidazo[1,2-d][1,4]oxazepin-9-yl)azetidine-2-carboxamide] are 205 nM, 399 nM and 396 nM.
For `C[C@H](Nc1ccc2c(c1)OCCn1c-2nc(N2C(=O)OC[C@H]2C(F)F)c1F)C(N)=O` [Example 1, (S)-2-((2-((S)-4-(difluoromethyl)-2-oxooxazolidin-3-yl)-3-fluoro-5,6-dihydrobenzo[f]imidazo[1,2-d][1,4]oxazepin-9-yl)amino)propionamide], in test [1], the “Selectivity of PI3Kα vs PI3Kβ” value is more than 1266. In test [2], the “Selectivity of PI3Kα vs PI3Kγ” value worked out at 226. Further, the “Selectivity of PI3Kα vs PI3Kδ” value in test [3] is 177.
